Measurements reported in US7994140B2, “Classes of compounds that interact with GPCRs” (Alchemia Limited, priority 2002, dated 2011).

Target: T1, MC4 (Homo sapiens, UniProt P32245)
T1 construct: purchased Perkin Elmer BioSignal; host or cells: HEK 293
Assay: GPCR radioligand binding (RLB) assay, melanocortin MC4, [125I]NDP-αMSH
Protocol: Recombinant human receptors expressed in HEK 293 cells were used for all experiments. Receptor membrane preparations were purchased from Perkin Elmer BioSignal. The labelled ligand used in somatostatin GPCR RLB assays was [^125I]SST-14 and in melanocortin assays was [^125I]NDP-αMSH. All assays were done in a 96-well plate format using either glass fiber filter mats or filter plates. All reagents purchased were of the highest quality.
Specific assay buffer, incubation and washing conditions were optimized for each receptor however they all followed the same general format. The procedures for both filter mat and filter plate formats are based on the receptor manufacturers recommendations or those described extensively in the literature. The procedures are briefly outlined below.
In assays where filter mats are used we incubate receptor membranes, assay buffer and [^125I] labelled ligand in 96 well microplates. Add compounds to incubation mixture and continue incubation for optimized period. Presoak Filter mat GF/B in 0.5% PEI for ˜2 hr at 4° C. On completion of assay mixture incubation add additional 100 μL/well of assay buffer immediately prior to filtration. Filter the assay mixture onto the GF/B filter mat using a cell harvester. Dry the filter mats prior to sealing them into a scintillation counting bag with scintillant. Radioactivity in each well is detected by liquid scintillation counting.
In assays where filter plates are used Multiscreen glass fiber filter plates (Millipore, Cat No MAFCNOB10) are precoated with 0.5% PEI for ˜2 hr at 4° C. All wells are then washed with 200 µl/well assay buffer and filtered using the Multiscreen Separation System. Subsequently receptor membranes, assay buffer and labelled ligands are added to the wells and equilibrated. Compounds for testing are then added to the mixture and incubation is continued for an optimized time. Plates are then put into the Multiscreen Separation System and the assay mixture is filtered through the plate under vacuum. Each well is then washed several times with assay buffer. Plates are then dried prior to putting sealing tape onto the bottom of the plate. Scintillant is added to each well and radioactivity measured by liquid scintillation counting.
Raw data was analysed according to standard methods using either GraphPad Prism software or IDDBS ActivityBase software.

[1] = 4.0 Micromolar, Example Library 10
[2] = 4.0 Micromolar, Example Library 11

T1 sequence (P32245 whole entry): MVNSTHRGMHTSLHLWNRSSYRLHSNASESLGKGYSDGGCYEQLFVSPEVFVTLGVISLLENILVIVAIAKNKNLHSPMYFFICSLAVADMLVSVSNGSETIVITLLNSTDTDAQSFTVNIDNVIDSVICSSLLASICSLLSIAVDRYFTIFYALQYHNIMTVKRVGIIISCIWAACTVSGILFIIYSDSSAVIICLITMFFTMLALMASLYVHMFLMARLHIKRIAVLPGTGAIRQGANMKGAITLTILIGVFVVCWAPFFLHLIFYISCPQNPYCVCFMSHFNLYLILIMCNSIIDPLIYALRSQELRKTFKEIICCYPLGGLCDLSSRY

Row | SMILES | MC4 Inhibition at 4.0 Micromolar [1] | other results
1 | COC1C(O)C(COCc2ccc3ccccc3c2)OC(OCc2ccc(Cl)cc2)C1NC(=O)CNC(=N)N (centres unmarked) [Compound 349] | – | MC4 Inhibition at 4.0 Micromolar (4.0 micromolar compound): + (Indicates inhibition greater than . . . 50%)
2 | NCC(=O)N[C@H]1C(OCc2ccc3ccccc3c2)O[C@H](COCc2ccc3ccccc3c2)[C@@H](O)[C@@H]1OCc1ccc(Cl)cc1 (some centres unmarked) [Compound 350] | + (Indicates inhibition greater than . . . 50%) | –
3 | NCC(=O)N[C@H]1C(OCc2ccc3ccccc3c2)O[C@H](COCc2ccc3ccccc3c2)[C@@H](O)[C@@H]1OCc1ccc(Cl)cc1 (some centres unmarked) [Compound 351] | + (Indicates inhibition greater than . . . 50%) | –
4 | NCCC(=O)N[C@H]1C(OCc2ccc3ccccc3c2)O[C@H](COCc2ccccc2)[C@@H](O)[C@@H]1OCc1ccc(Cl)cc1 (some centres unmarked) [Compound 352] | + (Indicates inhibition greater than . . . 50%) | –
5 | NCCC(=O)N[C@H]1C(OCc2ccc3ccccc3c2)O[C@H](COCc2ccccc2)[C@@H](O)[C@@H]1OCc1ccc(Cl)cc1 (some centres unmarked) [Compound 353] | + (Indicates inhibition greater than . . . 50%) | –
6 | NCCC(=O)N[C@H]1C(OCc2ccc3ccccc3c2)O[C@H](COCc2ccc(Cl)cc2)[C@@H](O)[C@@H]1OCc1ccc(Cl)cc1 (some centres unmarked) [Compound 354] | + (Indicates inhibition greater than . . . 50%) | –
7 | NCCC(=O)N[C@H]1C(OCc2ccc3ccccc3c2)O[C@H](COCc2ccc(Cl)cc2)[C@@H](O)[C@@H]1OCc1ccc(Cl)cc1 (some centres unmarked) [Compound 355] | + (Indicates inhibition greater than . . . 50%) | –
8 | NCC(=O)N[C@H]1C(OCc2ccc3ccccc3c2)O[C@H](COCc2ccc3ccccc3c2)[C@@H](O)[C@@H]1OCc1ccc2ccccc2c1 (some centres unmarked) [Compound 356] | + (Indicates inhibition greater than . . . 50%) | –
9 | NCCC(=O)N[C@H]1C(OCc2ccc3ccccc3c2)O[C@H](COCc2ccc3ccccc3c2)[C@@H](O)[C@@H]1OCc1ccc2ccccc2c1 (some centres unmarked) [Compound 357] | + (Indicates inhibition greater than . . . 50%) | –
10 | NCCC(=O)N[C@H]1C(OCc2ccc3ccccc3c2)O[C@H](COCc2ccccc2)[C@@H](O)[C@@H]1OCc1ccc2ccccc2c1 (some centres unmarked) [Compound 358] | + (Indicates inhibition greater than . . . 50%) | –
11 | NCCC(=O)N[C@H]1C(OCc2ccc3ccccc3c2)O[C@H](COCc2ccc(Cl)cc2)[C@@H](O)[C@@H]1OCc1ccc2ccccc2c1 (some centres unmarked) [Compound 359] | + (Indicates inhibition greater than . . . 50%) | –
12 | NCCC(=O)N[C@H]1C(OCc2ccc3ccccc3c2)O[C@H](COCc2ccc(Cl)cc2)[C@@H](O)[C@@H]1OCc1ccc2ccccc2c1 (some centres unmarked) [Compound 360] | + (Indicates inhibition greater than . . . 50%) | –
13 | NCCC(=O)N[C@H]1C(OCc2ccc3ccccc3c2)O[C@H](COCc2ccc3ccccc3c2)[C@@H](O)[C@@H]1OCc1ccccc1 (some centres unmarked) [Compound 361] | + (Indicates inhibition greater than . . . 50%) | –
14 | NCC(=O)N[C@H]1C(OCc2ccc3ccccc3c2)O[C@H](COCc2ccc(Cl)cc2)[C@@H](O)[C@@H]1OCc1ccccc1 (some centres unmarked) [Compound 364] | + (Indicates inhibition greater than . . . 50%) | –
15 | NCCCC(=O)N[C@H]1C(OCc2ccc3ccccc3c2)O[C@H](COCc2ccc3ccccc3c2)[C@@H](O)[C@@H]1OCc1ccc2ccccc2c1 (some centres unmarked) [Compound 369] | + (Indicates inhibition greater than . . . 50%) | –
16 | NCCCC(=O)N[C@H]1C(OCc2ccc3ccccc3c2)O[C@H](COCc2ccccc2)[C@@H](O)[C@@H]1OCc1ccccc1 (some centres unmarked) [Compound 374] | + (Indicates inhibition greater than . . . 50%) | –
17 | NCCCC(=O)N[C@H]1C(OCc2ccc3ccccc3c2)O[C@H](COCc2ccc(Cl)cc2)[C@@H](O)[C@@H]1OCc1ccccc1 (some centres unmarked) [Compound 375] | + (Indicates inhibition greater than . . . 50%) | –
18 | NCCC(=O)N[C@H]1C(OCc2ccc(Cl)cc2)O[C@H](COCc2ccccc2)[C@@H](O)[C@@H]1OCc1ccc(Cl)cc1 (some centres unmarked) [Compound 376] | + (Indicates inhibition greater than . . . 50%) | –
19 | NCCC(=O)N[C@H]1C(OCc2ccc(Cl)cc2)O[C@H](COCc2ccc(Cl)cc2)[C@@H](O)[C@@H]1OCc1ccc(Cl)cc1 (some centres unmarked) [Compound 377] | + (Indicates inhibition greater than . . . 50%) | –
20 | NCCC(=O)N[C@H]1C(OCc2ccc(Cl)cc2)O[C@H](COCc2ccc3ccccc3c2)[C@@H](O)[C@@H]1OCc1ccc2ccccc2c1 (some centres unmarked) [Compound 378] | + (Indicates inhibition greater than . . . 50%) | –
21 | NCCC(=O)N[C@H]1C(OCc2ccc(Cl)cc2)O[C@H](COCc2ccccc2)[C@@H](O)[C@@H]1OCc1ccc2ccccc2c1 (some centres unmarked) [Compound 379] | + (Indicates inhibition greater than . . . 50%) | –

Row | SMILES | MC4 Inhibition at 4.0 Micromolar [1] | other results
22 | NCC(=O)N[C@H]1C(OCc2ccc(Cl)cc2)O[C@H](COCc2ccccc2)[C@@H](O)[C@@H]1OCc1ccc2ccccc2c1 (some centres unmarked) [Compound 380] | + (Indicates inhibition greater than . . . 50%) | –
23 | NCCC(=O)N[C@H]1C(OCc2ccc(Cl)cc2)O[C@H](COCc2ccc(Cl)cc2)[C@@H](O)[C@@H]1OCc1ccc2ccccc2c1 (some centres unmarked) [Compound 381] | + (Indicates inhibition greater than . . . 50%) | –
24 | NCC(=O)N[C@H]1C(OCc2ccc(Cl)cc2)O[C@H](COCc2ccc(Cl)cc2)[C@@H](O)[C@@H]1OCc1ccc2ccccc2c1 (some centres unmarked) [Compound 382] | + (Indicates inhibition greater than . . . 50%) | –
25 | NCCC(=O)N[C@H]1C(OCc2ccc(Cl)cc2)O[C@H](COCc2ccc3ccccc3c2)[C@@H](O)[C@@H]1OCc1ccccc1 (some centres unmarked) [Compound 383] | + (Indicates inhibition greater than . . . 50%) | –
26 | NCC(=O)N[C@H]1C(OCc2ccc(Cl)cc2)O[C@H](COCc2ccccc2)[C@@H](O)[C@@H]1OCc1ccccc1 (some centres unmarked) [Compound 384] | + (Indicates inhibition greater than . . . 50%) | –
27 | NCCC(=O)N[C@H]1C(OCc2ccc(Cl)cc2)O[C@H](COCc2ccc(Cl)cc2)[C@@H](O)[C@@H]1OCc1ccccc1 (some centres unmarked) [Compound 385] | + (Indicates inhibition greater than . . . 50%) | –
28 | NCCCC(=O)N[C@H]1C(OCc2ccc(Cl)cc2)O[C@H](COCc2ccc3ccccc3c2)[C@@H](O)[C@@H]1OCc1ccc(Cl)cc1 (some centres unmarked) [Compound 386] | + (Indicates inhibition greater than . . . 50%) | –
29 | NCCCC(=O)N[C@H]1C(OCc2ccc(Cl)cc2)O[C@H](COCc2ccccc2)[C@@H](O)[C@@H]1OCc1ccc(Cl)cc1 (some centres unmarked) [Compound 387] | + (Indicates inhibition greater than . . . 50%) | –
30 | NCCCC(=O)N[C@H]1C(OCc2ccc(Cl)cc2)O[C@H](COCc2ccc(Cl)cc2)[C@@H](O)[C@@H]1OCc1ccc(Cl)cc1 (some centres unmarked) [Compound 388] | + (Indicates inhibition greater than . . . 50%) | –
31 | NCCCC(=O)N[C@H]1C(OCc2ccc(Cl)cc2)O[C@H](COCc2ccc3ccccc3c2)[C@@H](O)[C@@H]1OCc1ccccc1 (some centres unmarked) [Compound 395] | + (Indicates inhibition greater than . . . 50%) | –
32 | NCCCC(=O)N[C@H]1C(OCc2ccc(Cl)cc2)O[C@H](COCc2ccc(Cl)cc2)[C@@H](O)[C@@H]1OCc1ccccc1 (some centres unmarked) [Compound 396] | + (Indicates inhibition greater than . . . 50%) | –
33 | NCCC(=O)NC1C(OCc2ccccc2)OC(COCc2ccc3ccccc3c2)C(O)C1OCc1ccc(Cl)cc1 (centres unmarked) [Compound 397] | – | MC4 Inhibition at 4.0 Micromolar [2]: + (Indicates inhibition greater than . . . 50%)
34 | NCCC(=O)NC1C(OCc2ccccc2)OC(COCc2ccccc2)C(O)C1OCc1ccc(Cl)cc1 (centres unmarked) [Compound 398] | – | MC4 Inhibition at 4.0 Micromolar [2]: + (Indicates inhibition greater than . . . 50%)
35 | NCCC(=O)NC1C(OCc2ccccc2)OC(COCc2ccc(Cl)cc2)C(O)C1OCc1ccc(Cl)cc1 (centres unmarked) [Compound 399] | – | MC4 Inhibition at 4.0 Micromolar [2]: + (Indicates inhibition greater than . . . 50%)
36 | NCCC(=O)NC1C(OCc2ccccc2)OC(COCc2ccc3ccccc3c2)C(O)C1OCc1ccc2ccccc2c1 (centres unmarked) [Compound 400] | – | MC4 Inhibition at 4.0 Micromolar [2]: + (Indicates inhibition greater than . . . 50%)
37 | NCCC(=O)NC1C(OCc2ccccc2)OC(COCc2ccccc2)C(O)C1OCc1ccc2ccccc2c1 (centres unmarked) [Compound 401] | – | MC4 Inhibition at 4.0 Micromolar [2]: + (Indicates inhibition greater than . . . 50%)
38 | NCCC(=O)NC1C(OCc2ccccc2)OC(COCc2ccc(Cl)cc2)C(O)C1OCc1ccc2ccccc2c1 (centres unmarked) [Compound 402] | – | MC4 Inhibition at 4.0 Micromolar [2]: + (Indicates inhibition greater than . . . 50%)
39 | NCCC(=O)NC1C(OCc2ccccc2)OC(COCc2ccc3ccccc3c2)C(O)C1OCc1ccccc1 (centres unmarked) [Compound 403] | – | MC4 Inhibition at 4.0 Micromolar [2]: + (Indicates inhibition greater than . . . 50%)
40 | NCCC(=O)NC1C(OCc2ccccc2)OC(COCc2ccccc2)C(O)C1OCc1ccccc1 (centres unmarked) [Compound 404] | – | MC4 Inhibition at 4.0 Micromolar [2]: + (Indicates inhibition greater than . . . 50%)
41 | NCCC(=O)NC1C(OCc2ccccc2)OC(COCc2ccc(Cl)cc2)C(O)C1OCc1ccccc1 (centres unmarked) [Compound 405] | – | MC4 Inhibition at 4.0 Micromolar [2]: + (Indicates inhibition greater than . . . 50%)
